Experimental findings from article PMC6272913, “Synthesis of Bioactive 2-(Arylamino)thiazolo[5,4-f]-quinazolin-9-ones via the Hügershoff Reaction or Cu- Catalyzed Intramolecular C-S Bond Formation” (Molecules, 2016) are described below.

One experiment addresses GSK-3α/β. Briefly: GSK-3α/β in vitro kinase assay (GS-1 peptide). In kind it is biochemical, Porcine. Particulars: 15 μM ATP, 30 min at 30 °C, triplicate; >10 = less than 50% inhibition at 10 µM.
A further experiment addresses CK1δ/ε. Put plainly: CK1δ/ε in vitro kinase assay (CK1-specific peptide substrate). It is filed as biochemical, Porcine. Particulars: 15 μM ATP, 30 min at 30 °C, triplicate; >10 = less than 50% inhibition at 10 µM.
The target in another experiment is DYRK1A (Rattus norvegicus, UniProt Q63470). Put plainly: DYRK1A in vitro kinase assay (Woodtide). It is filed as biochemical. Particulars: 15 μM ATP, 30 min at 30 °C, triplicate; >10 = less than 50% inhibition at 10 µM.
In a further experiment the target is CLK1 (Homo sapiens, UniProt P49759). Briefly: CLK1 in vitro kinase assay (RS peptide). It is filed as biochemical. Particulars: 15 μM ATP, 30 min at 30 °C, triplicate; >10 = less than 50% inhibition at 10 µM.
Another experiment has as its target T1, CDK5/p25 (Homo sapiens, UniProt Q00535).
T1 construct: made in house
Put plainly: CDK5/p25 in vitro kinase assay (histone H1, [γ-33P] ATP). In kind it is biochemical.

Setting [1] is: 15 μM ATP, 30 min at 30 °C, triplicate, >10 = less than 50% inhibition at 10 µM.

Values joined by “and” are separate entries in the source; they are usually repeats but may differ in a detail not shown here. Equal values may be shown once. Read-outs that look alike come from different tables or passages of the source.

Sequence of CLK1 (P49759 whole entry): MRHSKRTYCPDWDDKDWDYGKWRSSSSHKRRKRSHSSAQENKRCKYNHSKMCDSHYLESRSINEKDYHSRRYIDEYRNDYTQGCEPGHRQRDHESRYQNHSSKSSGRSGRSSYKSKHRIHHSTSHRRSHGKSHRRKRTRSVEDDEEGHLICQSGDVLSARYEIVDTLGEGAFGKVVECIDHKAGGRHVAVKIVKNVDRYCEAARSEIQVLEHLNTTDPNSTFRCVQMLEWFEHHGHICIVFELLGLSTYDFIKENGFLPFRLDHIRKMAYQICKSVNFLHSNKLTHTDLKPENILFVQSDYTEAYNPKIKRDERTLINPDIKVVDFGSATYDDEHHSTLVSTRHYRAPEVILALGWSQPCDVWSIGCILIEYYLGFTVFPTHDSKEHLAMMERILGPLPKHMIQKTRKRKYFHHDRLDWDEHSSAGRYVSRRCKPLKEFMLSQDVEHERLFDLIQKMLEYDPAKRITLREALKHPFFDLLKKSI
T1 sequence (Q00535 whole entry): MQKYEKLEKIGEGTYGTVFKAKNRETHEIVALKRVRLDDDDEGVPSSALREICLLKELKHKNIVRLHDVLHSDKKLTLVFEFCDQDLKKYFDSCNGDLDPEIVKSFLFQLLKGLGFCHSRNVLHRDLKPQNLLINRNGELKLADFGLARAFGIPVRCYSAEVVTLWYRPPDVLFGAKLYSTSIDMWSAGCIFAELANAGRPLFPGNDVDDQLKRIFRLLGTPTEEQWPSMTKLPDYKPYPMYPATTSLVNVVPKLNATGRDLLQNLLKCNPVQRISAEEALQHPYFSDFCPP
T1 sequence (Q15078 99-307 partner limits assumed): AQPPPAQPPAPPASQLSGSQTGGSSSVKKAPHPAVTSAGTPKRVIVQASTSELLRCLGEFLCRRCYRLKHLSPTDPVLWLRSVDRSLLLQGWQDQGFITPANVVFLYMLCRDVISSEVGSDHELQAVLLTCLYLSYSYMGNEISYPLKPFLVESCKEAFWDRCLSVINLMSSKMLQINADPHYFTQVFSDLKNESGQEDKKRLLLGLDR

In the case of `COc1ccc2c(c1)[nH]c1c(C)nccc12` [Harmine, reference compound], the IC50 is more than 10 µM against GSK-3α/β and 1.5 µM at CK1δ/ε.

`CN(C)CC/N=C(\N)c1nc2ccc3ncn(C4CC4)c(=O)c3c2s1` [Compound 17b, (Z)-8-Cyclopropyl-N′-[2-(dimethylamino)ethyl]-9-oxo-8,9-dihydrothiazolo[5,4-f]quinazoline-2-carboximidamide]: the IC50 against GSK-3α/β was 1.1 µM; at DYRK1A, 4.4 µM; on CK1δ/ε it was more than 10 µM; at CLK1, 0.29 µM; against CDK5/p25, more than 10 µM.

In the case of `O=c1c2c(ccc3nc(Nc4ccccc4)sc32)ncn1C1CC1` [Compound 8a, 8-Cyclopropyl-2-(phenylamino)thiazolo[5,4-f]quinazolin-9(8H)-one], the IC50 against GSK-3α/β was not below 10 µM; on DYRK1A, more than 10 µM; against CK1δ/ε it was more than 10 µM; against CLK1, 3.4 µM; against CDK5/p25 it was more than 10 µM.

Regarding `O=c1c2c(ccc3nc(NCc4ccccc4)sc32)ncn1C1CC1` [Compound 14a, 2-(Benzylamino)-8-cyclopropylthiazolo[5,4-f]quinazolin-9(8H)-one], the IC50 against GSK-3α/β was more than 10 µM; at DYRK1A, more than 10 µM; against CK1δ/ε it was more than 10 µM; against CLK1 it was 3.4 µM; against CDK5/p25 it was more than 10 µM.

For the compound `O=c1c2c(ccc3nc(NCCN4CCCCC4)sc32)ncn1C1CC1` [Compound 14c, 8-Cyclopropyl-2-([2-(piperidin-1-yl)ethyl]amino)thiazolo[5,4-f]quinazolin-9(8H)-one], the IC50 at GSK-3α/β was not below 10 µM; on DYRK1A it was more than 10 µM; at CK1δ/ε it was more than 10 µM; against CLK1, more than 10 µM; against CDK5/p25 (setting [1]) it was more than 10 µM.

For `O=c1c2c(ccc3nc(N4CCCCC4)sc32)ncn1C1CC1` [Compound 14e, 8-Cyclopropyl-2-(piperidin-1-yl)thiazolo[5,4-f]quinazolin-9(8H)-one], the IC50 was not below 10 µM at GSK-3α/β; more than 10 µM against DYRK1A; more than 10 µM on CK1δ/ε; 5.3 µM on CLK1; more than 10 µM at CDK5/p25.

Turning to `CN(C)CCNc1nc2ccc3ncn(C4CC4)c(=O)c3c2s1` [Compound 14b, 8-Cyclopropyl-2-([2-(dimethylamino)ethyl]amino)thiazolo[5,4-f]quinazolin-9(8H)-one], the concentration for half-maximal inhibition (IC50) at GSK-3α/β is not below 10 µM; against DYRK1A, more than 10 µM; at CK1δ/ε, more than 10 µM; at CLK1 it was more than 10 µM; against CDK5/p25, more than 10 µM.

Turning to `N=C(c1nc2ccc3ncn(C4CC4)c(=O)c3c2s1)N1CCOCC1` [Compound 17e, 8-Cyclopropyl-2-[imino(morpholino)methyl]thiazolo[5,4-f]quinazolin-9(8H)-one], the IC50 is 0.23 µM against GSK-3α/β; 0.14 µM against DYRK1A; 1.9 µM on CK1δ/ε; 0.38 µM at CLK1; more than 10 µM at CDK5/p25 (setting [1]).

For `O=c1c2c(ccc3nc(Nc4cccnc4)sc32)ncn1C1CC1` [Compound 8g, 8-Cyclopropyl-2-(pyridin-3-ylamino)thiazolo[5,4-f]quinazolin-9(8H)-one], the IC50 against GSK-3α/β is not below 10 µM; against DYRK1A, more than 10 µM; at CK1δ/ε it was more than 10 µM; against CLK1 it was 1.7 µM; on CDK5/p25 it was more than 10 µM.

`COc1cc2nc(Nc3ccc4ncn(C5CC5)c(=O)c4c3)sc2cc1OC` [Compound 10l, 3-Cyclopropyl-6-((5,6-dimethoxybenzo[d]thiazol-2-yl)amino)quinazolin-4(3H)-one]: the concentration for half-maximal inhibition (IC50) at GSK-3α/β was not below 10 µM; against DYRK1A, more than 10 µM; against CK1δ/ε, more than 10 µM; on CLK1, more than 10 µM; at CDK5/p25, more than 10 µM.

In the case of “8-Cyclopropyl-2-(piperidin-1-yl)thiazolo[5,4-f]quinazolin-9(8H)-one [Compound 14f]”, the 50% inhibitory concentration (IC50) was not below 10 µM on GSK-3α/β; more than 10 µM on DYRK1A; more than 10 µM against CK1δ/ε; more than 10 µM on CLK1; more than 10 µM against CDK5/p25 (setting [1]).

In the case of `CN(C)c1ccc(Nc2nc3ccc4ncn(C5CC5)c(=O)c4c3s2)cc1` [Compound 8j, 8-Cyclopropyl-2-([4-(dimethylamino)phenyl]amino)thiazolo[5,4-f]quinazolin-9(8H)-one], the IC50 on DYRK1A is 1.3 to 7.3 µM and 2 µM; against CK1δ/ε it was more than 10 µM; against CLK1, 1.3 to 7.3 µM and 1.3 µM; against CDK5/p25, more than 10 µM.

Regarding `N/C(=N\CCN1CCOCC1)c1nc2ccc3ncn(C4CC4)c(=O)c3c2s1` [Compound 17c, (Z)-8-Cyclopropyl-N′-(2-morpholinoethyl)-9-oxo-8,9-dihydrothiazolo[5,4-f]quinazoline-2-carboximidamide], the concentration for half-maximal inhibition (IC50) at GSK-3α/β is 2.8 µM; against DYRK1A, 3.2 µM; against CK1δ/ε, more than 10 µM; against CLK1 it was 2.3 µM; at CDK5/p25, more than 10 µM.

Turning to `N/C(=N\CCN1CCCCC1)c1nc2ccc3ncn(C4CC4)c(=O)c3c2s1` [Compound 17d, (Z)-8-Cyclopropyl-9-oxo-N′-[2-(piperidin-1-yl)ethyl]-8,9-dihydrothiazolo[5,4-f]quinazoline-2-carboximidamide], the IC50 at GSK-3α/β was 3.9 µM; against DYRK1A, 2.9 µM; at CK1δ/ε, more than 10 µM; against CLK1, 2.1 µM; against CDK5/p25 it was more than 10 µM.

Turning to `N=C(c1nc2ccc3ncn(C4CC4)c(=O)c3c2s1)N1CCCCC1` [Compound 17f, 8-Cyclopropyl-2-[imino(piperidin-1-yl)methyl]thiazolo[5,4-f]quinazolin-9(8H)-one], the IC50 was 0.49 µM against GSK-3α/β; 0.82 µM against DYRK1A; more than 10 µM against CK1δ/ε; 0.61 µM against CLK1; more than 10 µM against CDK5/p25 (setting [1]).

Turning to `O=c1c2c(ccc3nc(NCCN4CCOCC4)sc32)ncn1C1CC1` [Compound 14d, 8-Cyclopropyl-2-[(2-morpholinoethyl)amino]thiazolo[5,4-f]quinazolin-9(8H)-one], the IC50 is not below 10 µM at GSK-3α/β; 8.2 µM against DYRK1A; more than 10 µM at CK1δ/ε; 8.1 µM against CLK1; more than 10 µM against CDK5/p25.

`N=C(NCc1ccccc1)c1nc2ccc3ncn(C4CC4)c(=O)c3c2s1` [Compound 17a, N-Benzyl-8-cyclopropyl-9-oxo-8,9-dihydrothiazolo[5,4-f]quinazoline-2-carboximidamide]: the IC50 at GSK-3α/β is 0.4 µM; at DYRK1A, 0.67 µM; against CK1δ/ε it was more than 10 µM; against CLK1, 1 µM; at CDK5/p25 it was more than 10 µM.

For the compound `O=c1c2cc(Nc3nc4ccccc4s3)ccc2ncn1C1CC1` [Compound 10a, 3-Cyclopropyl-6-[(benzo[d]thiazol-2-yl)amino]quinazolin-4(3H)-one], the IC50 was not below 10 µM against GSK-3α/β; 4.8 µM on DYRK1A; more than 10 µM on CK1δ/ε; 5.2 µM against CLK1; more than 10 µM on CDK5/p25.
